Assay results from patent publication US10882835B2 (Imago Biosciences, Inc., priority 2013, dated 2021).

Assays:
KDM1A (LSD1) = KDM1A (LSD1) (Homo sapiens (Human), UniProt O60341); assay: 10-dose IC50 fluorescence coupling enzyme assay, LSD1 demethylase activity on histone H3(1-21)K4me2 peptide (HRP/Amplex Red); type: biochemical; settings: 10 μM histone H3(1-21)K4me2 peptide substrate
[1] = Metabolic stability in murine liver microsomes; type: in vitro ADME; settings: mouse liver microsomes, 2 μM compound, NADPH
Experimental: The metabolic stability of compounds disclosed herein in pooled human liver microsomes (HLM) and pooled male mouse liver microsomes (MMLM) was determined according to the following protocol, in which the concentrations of compounds in reaction systems were evaluated by LC/MS/MS for estimating the stability in liver microsomes.
Pooled human liver microsomes (HMMCPL; PL050B) and pooled male mouse liver microsomes (MSMCPL; MS033) were purchased from CellzDirect (Invitrogen). Microsomes were stored at −80 C prior to use.
A master solution was prepared containing microsome (stock concentration 5 mg/mL, volume 50 μL, final concentration 0.5 mg/mL), MgCl2 solution (stock concentration 50 mM, volume 50 μL, final concentration 5 mM), phosphate buffer (stock concentration 200 mM, volume 250 μL, final concentration 100 mM), and water (volume […]. Five μL of 200 μM test compounds or control solution (control compound: verapamil) was then added. The final concentration of test compounds or verapamil in the reaction system was 2 μM. The mixture was pre-warmed at 37 C for 5 min.
The reaction was started with the addition of 50 μL of 10 mM NADPH solution at the final concentration of 1 mM and carried out at 37 C. 50 μL of ultra-pure H2O was used instead of NADPH solution in the negative control.
Aliquots of 50 μL were taken from the reaction solution at 0 and 30 min. The reaction was stopped by the addition of 3 volumes of cold methanol with IS (200 nM imipramine, 200 nM labetalol and 2 μM ketoprofen) at the designated time points. Samples were centrifuged at 16,000 g for 10 minutes to precipitate protein. Aliquot of 100 μL of the supernatant was diluted by 100 μL ultra-pure H2O, and the mixture was used for LC/MS/MS analysis. All experiments were performed in duplicate.
Samples were analyzed using liquid chromatography-mass spectrometry. The LC system comprised a Shimadzu liquid chromatograph separation system equipped with degasser DGU-20A3, solvent delivery unit LC-20AD, system controller CBM-20A, column oven CTO-10ASVP and CTC Analytics HTC PAL System. Chromatographic conditions included a Phenomenex column, 5.0μ C18 (2.0×50 mm); a mobile phase of 0.1% formic acid in acetonitrile and 0.1% formic acid in water; an elution rate of 500 μL/min; column temperature 25 C; injection volume 10 μL. Mass spectrometric analysis was performed using an API 4000 instrument from AB Inc. (Canada) with an ESI interface. The data acquisition and control system were created using Analyst 1.5.1 software from ABI Inc. A turbo spray ion source and electrospray ionization were employed in a multiple reaction monitoring (MRM) scan. Additional parameters included: collision gas, 6 L/min; curtain gas, 30 L/min; nebulize gas, 50 L/min; auxiliary gas, 50 L/min; temperature, 500 C; ionspray voltage, +5500 v (positive MRM). Quadripoles Q1 and Q3 were set to 456.2 and 200.2, respectively; declustering potential (DP), entrance potential (EP), and collision cell entrance potential (CE) were set to 120, 10, and 55 v, respectively; collision cell exit potential (CXP) was 12 v.
All calculations were carried out using Microsoft Excel. Peak areas were determined from extracted ion chromatograms. The control compounds were included in the assay. Any value of the compounds that was not within the specified limits was rejected and the experiment was repeated. The reaction system without the cofactors was used to exclude the misleading factor that resulted from instability of chemical itself.

SMILES	IC50 (KDM1A (LSD1)) [µM]	% at 30 min, MLM [1]	% at 30 min, MLM ([1]; numeric values of Table 2) [%]
O=C(N[C@@H](CCCCN[C@@H]1C[C@H]1c1ccc(F)cc1)C(=O)N1CCCCC1)c1ccc(C(F)(F)F)cc1 [Example 14, N—((S)-6-(((1R,2S)-2-(4-fluorophenyl)cyclopropyl)amino)-1-oxo-1-(piperidin-1-yl)hexan-2-yl)-4-(trifluoromethyl)benzamide]	< 1	− (− is <20%)	–
C[C@@]1(NCCS(=O)(=O)C[C@H](NC(=O)c2ccc(F)cc2)C(=O)N2CCOCC2)C[C@H]1c1ccc(F)cc1 [Example 17, 4-fluoro-N—((R)-3-((2-(((1R,2S)-2-(4-fluorophenyl)-1-methylcyclopropyl)amino)ethyl)sulfonyl)-1-morpholino-1-oxopropan-2-yl)benzamide]	< 1	− (− is <20%)	2.7
O=C(N[C@@H](CCCCN[C@@H]1C[C@H]1c1ccccc1)C(=O)N1CCOCC1)c1ccccc1 [Example 6, N—((S)-1-morpholino-1-oxo-6-(((1R,2S)-2-phenylcyclopropyl)amino)hexan-2-yl)benzamide]	< 1	+ (+ is ≥20%)	–
C[C@@]1(NCCCC[C@H](NC(=O)c2ccccc2)C(=O)N2CCN(S(C)(=O)=O)CC2)C[C@H]1c1ccc(F)cc1 [Example 8, N—((S)-6-(((1R,2S)-2-(4-fluorophenyl)-1-methylcyclopropyl)amino)-1-(4-(methylsulfonyl)piperazin-1-yl)-1-oxohexan-2-yl)benzamide]	> 1	+ (+ is ≥20%)	65
O=C(N[C@@H](CS(=O)(=O)CCN[C@@H]1C[C@H]1c1ccc(F)cc1)C(=O)N1CCOCC1)c1ccc(F)cc1 [Example 19, 4-fluoro-N—((R)-3-((2-(((1R,2S)-2-(4-fluorophenyl)cyclopropyl)amino)ethyl)sulfonyl)-1-morpholino-1-oxopropan-2-yl)benzamide]	< 1	− (− is <20%)	2.3
